This test has as its target T1, human CB2R (Homo sapiens, UniProt P34972).
T1 construct: host or cells: CHO cells
Put plainly: CB2R mediated modulation of cAMP synthesis. Type of test: cell-based. The settings on record: found through the use of the described assays (CB2 agonists); qualitative statement. As for the experimental part: B. CB2R Mediated Modulation of cAMP Synthesis:
CHO cells expressing human CB2R (Euroscreen) were plated at a density of 5000 cells per well in 384 well plates and incubated overnight at 37° C. After removing the media, the cells were treated with test compounds diluted in stimulation buffer containing 1 mM IBMX, 0.25% BSA and 10 uM Forskolin. The assay was incubated for 30 minutes at 37° C. Cells were lysed and the cAMP concentration was measured using DiscoverX-XS cAMP kit, following the manufacturer's protocol. In this setting, agonists will decrease forskolin induced production of cAMP while inverse agonists will further increase forskolin induced production of cAMP. EC50 of agonists were calculated as follows. The maximal amount of cAMP produced by forskolin compared to the level of cAMP inhibited by 1 uM CP55940 is defined as 100%. […] Data was analyzed using a four-parameter logistic model. (Model 205 of XLfit 4.0).
T1 sequence (P34972 whole entry): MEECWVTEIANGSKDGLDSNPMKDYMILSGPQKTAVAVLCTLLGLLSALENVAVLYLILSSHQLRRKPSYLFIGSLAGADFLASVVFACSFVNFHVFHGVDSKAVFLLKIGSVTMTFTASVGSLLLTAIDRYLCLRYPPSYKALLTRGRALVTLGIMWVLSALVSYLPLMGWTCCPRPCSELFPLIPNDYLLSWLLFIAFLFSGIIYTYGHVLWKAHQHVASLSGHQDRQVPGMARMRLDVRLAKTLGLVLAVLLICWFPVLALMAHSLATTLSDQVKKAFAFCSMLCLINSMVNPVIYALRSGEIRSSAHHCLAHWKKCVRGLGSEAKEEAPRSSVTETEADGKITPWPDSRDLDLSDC
Consider `CCCCc1ccc(NC(=O)N2CCCN(C(=O)C3CCCCC3)CC2)cc1`, for which the agonistic activity result is “agonistic activity”.

Turning to `CCCCc1ccc(NC(=O)N2CCCN(C(=O)CC3CCCC3)CC2)cc1`, the agonistic activity entry is “agonistic activity”.

For `O=C(Nc1ccc(C(F)(F)F)cc1)N1CCCN(C(=O)c2ccc(C(F)(F)F)cc2)CC1`, the agonistic activity result is reported as “agonistic activity”.

`Cc1onc(NC(=O)N2CCCN(C(=O)C3CCOCC3)CC2)c1C`: the agonistic activity result is on record as “agonistic activity”.

For the compound `CC(C)(C)c1cc(NC(=O)N2CCCN(C(=O)Nc3ccccc3)CC2)no1`, the agonistic activity entry is “agonistic activity”.

As for `CC(C)(C)c1cc(NC(=O)N2CCCN(C(=O)NC3CCOCC3)CC2)no1`, the agonistic activity result is reported as “agonistic activity”.

In the case of `CC(C)(C)c1cc(NC(=O)N2CCCN(C(=O)NC3CCCC3)CC2)no1`, the agonistic activity result is listed as “agonistic activity”.

Take `CC(C)(C)c1cc(NC(=O)N2CCCN(C(=O)NC3CCCCC3)CC2)no1`: the agonistic activity entry is recorded as “agonistic activity”.

As for `CC(C)(C)c1cc(NC(=O)N2CCCN(C(=O)N3CCS(=O)(=O)CC3)CC2)on1` [4-(1,1-Dioxo-1λ^6-thiomorpholine-4-carbonyl)-[1,4]diazepane-1-carboxylic acid (3-tert-butyl-isoxazol-5-yl)-amide], the agonistic activity entry is listed as “agonistic activity”.

In the case of `CC(C)(C)c1cccc(NC(=O)N2CCCN(C(=O)N3CCS(=O)(=O)CC3)CC2)c1` [4-(1,1-Dioxo-1λ^6-thiomorpholine-4-carbonyl)-[1,4]diazepane-1-carboxylic acid (3-tert-butyl-phenyl)-amide], the agonistic activity entry was “agonistic activity”.

`O=C(Nc1nc2c(s1)CCCC2)N1CCCN(C(=O)N2CCS(=O)(=O)CC2)CC1` [4-(1,1-Dioxo-1λ^6-thiomorpholine-4-carbonyl)-[1,4]diazepane-1-carboxylic acid (4,5,6,7-tetrahydro-benzothiazol-2-yl)-amide]: the agonistic activity entry was “agonistic activity”.

For `CCC(C)c1ccc(NC(=O)N2CCCN(C(=O)N3CCS(=O)(=O)CC3)CC2)cc1` (centres unmarked) [4-(1,1-Dioxo-1λ^6-thiomorpholine-4-carbonyl)-[1,4]diazepane-1-carboxylic acid (4-sec-butyl-phenyl)-amide], the agonistic activity entry was “agonistic activity”.

Take `CC(C)(C)c1ccc(NC(=O)N2CCCN(C(=O)N3CCS(=O)(=O)CC3)CC2)cc1` [4-(1,1-Dioxo-1λ^6-thiomorpholine-4-carbonyl)-[1,4]diazepane-1-carboxylic acid (4-tert-butyl-phenyl)-amide]: the agonistic activity entry is reported as “agonistic activity”.

With `CC(C)c1cnc(NC(=O)N2CCCN(C(=O)N3CCS(=O)(=O)CC3)CC2)s1` [4-(1,1-Dioxo-1λ^6-thiomorpholine-4-carbonyl)-[1,4]diazepane-1-carboxylic acid (5-isopropyl-thiazol-2-yl)-amide], the agonistic activity entry is given as “agonistic activity”.

As to `CC(C)(C)c1cnc(NC(=O)N2CCCN(C(=O)N3CCS(=O)(=O)CC3)CC2)s1` [4-(1,1-Dioxo-1λ^6-thiomorpholine-4-carbonyl)-[1,4]diazepane-1-carboxylic acid (5-tert-butyl-thiazol-2-yl)-amide], the agonistic activity entry is listed as “agonistic activity”.

Consider `CC(c1ccc(NC(=O)N2CCCN(C(=O)N3CCS(=O)(=O)CC3)CC2)cc1)C(F)(F)F` (centres unmarked) [4-(1,1-Dioxo-1λ^6-thiomorpholine-4-carbonyl)-[1,4]diazepane-1-carboxylic acid [4-(2,2,2-trifluoro-1-methyl-ethyl)-phenyl]-amide], for which the agonistic activity entry is on record as “agonistic activity”.

For the compound `CC(C)(C)c1cc(NC(=O)N2CCCN(C(=O)C3CCS(=O)(=O)CC3)CC2)no1` [4-(1,1-Dioxo-hexahydro-1λ^6-thiopyran-4-carbonyl)-[1,4]diazepane-1-carboxylic acid (5-tert-butyl-isoxazol-3-yl)-amide], the agonistic activity entry was “agonistic activity”.

Take `CC(=O)N1CCC(C(=O)N2CCCN(C(=O)Nc3cc(C(C)(C)C)on3)CC2)CC1` [4-(1-Acetyl-piperidine-4-carbonyl)-[1,4]diazepane-1-carboxylic acid (5-tert-butyl-isoxazol-3-yl)-amide]: the agonistic activity entry is listed as “agonistic activity”.

Take `CC(C)(C)c1cc(NC(=O)N2CCCN(C(=O)C3CCCN(S(C)(=O)=O)C3)CC2)no1` (centres unmarked) [4-(1-Methanesulfonyl-piperidine-3-carbonyl)-[1,4]diazepane-1-carboxylic acid (5-tert-butyl-isoxazol-3-yl)-amide]: the agonistic activity entry is recorded as “agonistic activity”.

As for `CC(C)(C)c1cc(NC(=O)N2CCCN(C(=O)C3CCN(S(C)(=O)=O)CC3)CC2)no1` [4-(1-Methanesulfonyl-piperidine-4-carbonyl)-[1,4]diazepane-1-carboxylic acid (5-tert-butyl-isoxazol-3-yl)-amide], the agonistic activity result was “agonistic activity”.

For `CC1(C(=O)N2CCCN(C(=O)Nc3cc(C(C)(C)C)on3)CC2)CCCCC1` [4-(1-Methyl-cyclohexanecarbonyl)-[1,4]diazepane-1-carboxylic acid (5-tert-butyl-isoxazol-3-yl)-amide], the agonistic activity entry is reported as “agonistic activity”.

In the case of `CC(C)(C)c1cc(NC(=O)N2CCCN(C(=O)N3CC[S+]([O-])CC3)CC2)no1` [4-(1-Oxo-1λ^4-thiomorpholine-4-carbonyl)-[1,4]diazepane-1-carboxylic acid (5-tert-butyl-isoxazol-3-yl)-amide], the agonistic activity entry is recorded as “agonistic activity”.

For the compound `CC(C)(C)C(=O)N1CCCN(C(=O)Nc2ccc(C(C)(C)C)cc2)CC1` [4-(2,2-Dimethyl-propionyl)-[1,4]diazepane-1-carboxylic acid (4-tert-butyl-phenyl)-amide], the agonistic activity entry is listed as “agonistic activity”.

In the case of `CC(C)(C)C(=O)N1CCCN(C(=O)Nc2cc(C(C)(C)C)on2)CC1` [4-(2,2-Dimethyl-propionyl)-[1,4]diazepane-1-carboxylic acid (5-tert-butyl-isoxazol-3-yl)-amide], the agonistic activity entry is given as “agonistic activity”.

`CC(C)(C)C(=O)N1CCCN(C(=O)Nc2ccc3ccccc3c2)CC1` [4-(2,2-Dimethyl-propionyl)-[1,4]diazepane-1-carboxylic acid naphthalen-2-ylamide]: the agonistic activity result is “agonistic activity”.

For the compound `O=C(Nc1ccc2ccccc2c1)N1CCCN(C(=O)c2cc(Cl)ccc2Cl)CC1` [4-(2,5-Dichloro-benzoyl)-[1,4]diazepane-1-carboxylic acid naphthalen-2-ylamide], the agonistic activity result is reported as “agonistic activity”.

For `O=C(CC1CCCCC1)N1CCCN(C(=O)Nc2ccc3ccccc3c2)CC1` [4-(2-Cyclohexyl-acetyl)-[1,4]diazepane-1-carboxylic acid (2-naphthyl)-amide], the agonistic activity result is “agonistic activity”.

For the compound `CCCCc1ccc(NC(=O)N2CCCN(C(=O)CC3CCCCC3)CC2)cc1` [4-(2-Cyclohexyl-acetyl)-[1,4]diazepane-1-carboxylic acid (4-butyl-phenyl)-amide], the agonistic activity entry was “agonistic activity”.

On to `CCc1ccc(NC(=O)N2CCCN(C(=O)CC3CCCCC3)CC2)cc1` [4-(2-Cyclohexyl-acetyl)-[1,4]diazepane-1-carboxylic acid (4-ethyl-phenyl)-amide], for which the agonistic activity entry is listed as “agonistic activity”.

As to `CC(C)c1ccc(NC(=O)N2CCCN(C(=O)CC3CCCCC3)CC2)cc1` [4-(2-Cyclohexyl-acetyl)-[1,4]diazepane-1-carboxylic acid (4-isopropyl-phenyl)-amide], the agonistic activity entry is “agonistic activity”.

With `CC(C)(C)c1ccc(NC(=O)N2CCCN(C(=O)CC3CCCCC3)CC2)cc1` [4-(2-Cyclohexyl-acetyl)-[1,4]diazepane-1-carboxylic acid (4-tert-butyl-phenyl)-amide], the agonistic activity entry was “agonistic activity”.

Take `CC(C)c1ccc(NC(=S)N2CCCN(C(=O)CC3CCCC3)CC2)cc1` [4-(2-Cyclopentyl-acetyl)-[1,4]diazepane-1-carbothioic acid (4-isopropyl-phenyl)-amide]: the agonistic activity entry is given as “agonistic activity”.

Take `CC(=O)N1CCc2ccc(NC(=O)N3CCCN(C(=O)CC4CCCC4)CC3)cc21` [4-(2-Cyclopentyl-acetyl)-[1,4]diazepane-1-carboxylic acid (1-acetyl-2,3-dihydro-1H-indol-6-yl)-amide]: the agonistic activity result is “agonistic activity”.

`O=C(CC1CCCC1)N1CCCN(C(=O)Nc2ccc3c(c2)OC(F)(F)O3)CC1` [4-(2-Cyclopentyl-acetyl)-[1,4]diazepane-1-carboxylic acid (2,2-difluoro-benzo[1,3]dioxol-5-yl)-amide]: the agonistic activity entry is “agonistic activity”.

As to `O=C(CC1CCCC1)N1CCCN(C(=O)Nc2ccc(Cl)cc2Cl)CC1` [4-(2-Cyclopentyl-acetyl)-[1,4]diazepane-1-carboxylic acid (2,4-dichloro-phenyl)-amide], the agonistic activity entry is on record as “agonistic activity”.

With `O=C(CC1CCCC1)N1CCCN(C(=O)Nc2cc(Cl)ccc2Cl)CC1` [4-(2-Cyclopentyl-acetyl)-[1,4]diazepane-1-carboxylic acid (2,5-dichloro-phenyl)-amide], the agonistic activity result is listed as “agonistic activity”.

Take `O=C(CC1CCCC1)N1CCCN(C(=O)Nc2ccc3ccccc3c2)CC1` [4-(2-Cyclopentyl-acetyl)-[1,4]diazepane-1-carboxylic acid (2-naphthyl)-amide]: the agonistic activity entry is “agonistic activity”.

As to `O=C(CC1CCCC1)N1CCCN(C(=O)Nc2ccc(Cl)c(Cl)c2)CC1` [4-(2-Cyclopentyl-acetyl)-[1,4]diazepane-1-carboxylic acid (3,4-dichloro-phenyl)-amide], the agonistic activity result is reported as “agonistic activity”.
